Experimental data published in patent US20060069132A1, “Azolecarboxamide herbicides” (priority 2004, published 2006).

Columns and labels:
Surinam grass = test: Test B pre-/postemergence herbicide test; type: in vivo, Urochloa decumbens; conditions: for Plant response rating (0 to 100 scale), Surinam Grass: 0 is no effect
Procedure, shortened: (§1)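 Response was scored visually 13 to 15 days after treatment against untreated greenhouse controls, 0 meaning no effect and 100 complete control. Formulations (solvent mixture plus surfactant) went onto soil after planting, onto foliage of 1- to 4-leaf plants, and onto 2-leaf plants in a flooded paddy set including rice and barnyardgrass.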

pigweed = test: Test B pre-/postemergence herbicide test; type: in vivo, Amaranthus retroflexus; conditions: for Plant response rating (0 to 100 scale), Pigweed: 0 is no effect
Procedure, shortened: as §1

wild oat = test: Test B postemergence herbicide test; type: in vivo, Avena fatua
Procedure, shortened: (§2)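 After treating 2-leaf paddy plants or 2–18 cm postemergence plants (1 to 4 leaves) with formulated chemical, researchers kept them in a greenhouse for 13–15 days. Effects were judged visually versus controls: 0 indicates none, 100 total control.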

large crabgrass = test: Test B pre-/postemergence herbicide test; type: in vivo, Digitaria sanguinalis; conditions: for Plant response rating (0 to 100 scale), Crabgrass, Large: 0 is no effect; for Crabgrass, Large plant response rating: postemergence
Procedure, shortened: as §1

[1] = tested on: small flower umbrella sedge; test: Test B flooded paddy test; type: in vivo, Cyperus difformis; conditions: 1000 g ai/ha, scale 0 to 100 (0 no effect, 100 complete control)
Procedure, shortened: as §2

cocklebur = test: Test B pre-/postemergence herbicide test; type: in vivo, Xanthium strumarium; conditions: for Plant response rating (0 to 100 scale), Cocklebur: 0 is no effect; for Cocklebur plant response rating: postemergence
Procedure, shortened: (§3)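 Flooded paddy rice and barnyardgrass were treated at the 2-leaf stage; upland plantings received compound either on sown seed or on 1- to 4-leaf seedlings. All were kept 13–15 days in a greenhouse and scored visually, 0–100, relative to untreated plants.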

ducksalad [2] = test: Test B flooded paddy test; type: in vivo, Heteranthera limosa; conditions: 1000 g ai/ha, scale 0 to 100 (0 no effect, 100 complete control)
Procedure, shortened: as §2

barnyardgrass [3] = test: Test B pre-/postemergence herbicide test; type: in vivo, Echinochloa crus-galli; conditions: for Plant response rating (0 to 100 scale), Barnyardgrass: 0 is no effect; for Barnyardgrass plant response rating: postemergence
Procedure, shortened: as §3

corn = test: Test B pre-/postemergence herbicide test; type: in vivo, Zea mays; conditions: for Plant response rating (0 to 100 scale), Corn: 0 is no effect; for Corn plant response rating: postemergence
Procedure, shortened: as §1

morningglory = test: Test B pre-/postemergence herbicide test; type: in vivo, Ipomoea coccinea; conditions: for Plant response rating (0 to 100 scale), Morningglory: 0 is no effect
Procedure, shortened: as §3

blackgrass = test: Test B postemergence herbicide test; type: in vivo, Alopecurus myosuroides; conditions: postemergence
Procedure, shortened: as §2

barnyardgrass [4] = test: Test C flooded paddy test; type: in vivo, Echinochloa crus-galli; conditions: for Plant response rating, Barnyardgrass: 500 g ai/ha, visual rating after 12 to 14 days
Procedure, shortened: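 Weeds and wheat were sprayed after emergence, at a height of 2 to 18 cm (1–4 leaves), and paddy barnyardgrass was flooded and treated at two leaves. Assessment took place 12–14 days later in the greenhouse on a 0-to-100 visual control scale. A dash means no result was obtained.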

ducksalad [5] = test: Test C flooded paddy test; type: in vivo, Heteranthera limosa; conditions: for Plant response rating, Ducksalad: 500 g ai/ha, visual rating after 12 to 14 days
rice [6] = test: Test B flooded paddy test; type: in vivo, Oryza sativa; conditions: 1000 g ai/ha, scale 0 to 100 (0 no effect, 100 complete control)
Procedure, shortened: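 Postemergence plants were sprayed with formulated test chemicals at 2 to 18 cm height (1- to 4-leaf stage); paddy species were grown to the 2-leaf stage. After 13 to 15 days in a greenhouse, injury was rated visually against untreated controls on a 0–100 scale (0 = no effect, 100 = complete control).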

barnyardgrass [7] = test: Test B flooded paddy test; type: in vivo, Echinochloa crus-galli; conditions: 1000 g ai/ha, scale 0 to 100 (0 no effect, 100 complete control)
Procedure, shortened: as §2

wheat = test: Test B postemergence herbicide test; type: in vivo, Triticum aestivum; set-up: key to Wheat plant response rating: 0 = no effect, 100 = complete control
Procedure, shortened: as §2

rice [8] = test: Test C flooded paddy test; type: in vivo, Oryza sativa; conditions: for Plant response rating, Rice: 500 g ai/ha, visual rating after 12 to 14 days
Procedure, shortened: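 Postemergence sprays applied to plants 2 to 18 cm tall (1- to 4-leaf stage); paddy species grown to 2-leaf stage under flooding. After 12 to 14 days in greenhouse, visual rating versus untreated controls on 0–100 scale (0 no effect, 100 complete control).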

velvetleaf = test: Test B pre-/postemergence herbicide test; type: in vivo, Abutilon theophrasti; conditions: for Plant response rating (0 to 100 scale), Velvetleaf: 0 is no effect, preemergence
Procedure, shortened: as §1

lambsquarters = test: Test B pre-/postemergence herbicide test; type: in vivo, Chenopodium album; conditions: for Plant response rating (0 to 100 scale), Lambsquarters: 0 is no effect
Procedure, shortened: as §1

giant foxtail = test: Test B pre-/postemergence herbicide test; type: in vivo, Setaria faberi; conditions: for Plant response rating (0 to 100 scale), Foxtail, Giant: 0 is no effect; for Foxtail, Giant plant response rating: postemergence
Procedure, shortened: as §1

[9] = tested on: smallflower umbrella sedge; test: Test C flooded paddy test; type: in vivo, Cyperus difformis
[10] = 125 g ai/ha, 100 is complete control, preemergence
[11] = 125 g ai/ha, visual rating, scale 0 (no effect) to 100 (complete control), postemergence
[12] = 500 g ai/ha, visual rating, 0 = no effect, 100 = complete control, preemergence
[13] = postemergence, 500 g ai/ha, scale 0 to 100, 0 is no effect, 100 is complete control
[14] = 125 g ai/ha, visual rating, scale 0 (no effect) to 100 (complete control)
[15] = 500 g ai/ha, scale 0 to 100, 0 is no effect, 100 is complete control
[16] = 62 g ai/ha, scale 0 to 100 (0 no effect, 100 complete control)
[17] = 125 g ai/ha, scale 0 to 100 (0 no effect, 100 complete control)
[18] = 250 g ai/ha, scale of 0 to 100, 0 is no effect, 100 is complete control
[19] = scale 0 to 100 (0 no effect, 100 complete control)
[20] = 125 g ai/ha, 100 is complete control
[21] = Postemergence, 500 g ai/ha, scale 0 (no effect) to 100 (complete control)

CCc1nn(C(C)C)nc1C(=O)Nc1cccc(C(=O)N2CC=CC2)c1 [Compound 359]
Plant response rating (0 to 100 scale), Surinam Grass (Surinam grass; [10]): 20
Surinam Grass plant response rating (Surinam grass; [11]): 10
Plant response rating, Surinam Grass (Surinam grass; [12]): 70
Surinam Grass plant response rating (Surinam grass; [13]): 10
Plant response rating (0 to 100 scale), Pigweed (pigweed; [10]): 0
Pigweed plant response rating (pigweed; [11]): 20
Plant response rating, Pigweed (pigweed; [12]): 100
Pigweed plant response rating (pigweed; [13]): 50
Oat, Wild plant response rating (wild oat; [11]): 20
Oat, Wild plant response rating (wild oat; [13]): 30
Plant response rating (0 to 100 scale), Crabgrass, Large (large crabgrass; [10]): 90
Crabgrass, Large plant response rating (large crabgrass; [14]): 10
Plant response rating, Crabgrass, Large (large crabgrass; [12]): 100
Crabgrass, Large plant response rating (large crabgrass; [15]): 20
Sedge, Umbrella plant response rating [1]: 80
Plant response rating (0 to 100 scale), Cocklebur (cocklebur; [10]): 0
Cocklebur plant response rating (cocklebur; [14]): 10
Plant response rating, Cocklebur (cocklebur; [12]): 30
Cocklebur plant response rating (cocklebur; [15]): 30
Ducksalad plant response rating (ducksalad [2]): 70
Plant response rating (0 to 100 scale), Barnyardgrass (barnyardgrass [3]; [10]): 0
Barnyardgrass plant response rating (barnyardgrass [3]; [14]): 10
Plant response rating, Barnyardgrass (barnyardgrass [3]; [12]): 90
Barnyardgrass plant response rating (barnyardgrass [3]; [15]): 10
Plant response rating (0 to 100 scale), Corn (corn; [10]): 0
Corn plant response rating (corn; [14]): 10
Plant response rating, Corn (corn; [12]): 60
Corn plant response rating (corn; [15]): 10
Plant response rating (0 to 100 scale), Morningglory (morningglory; [10]): 0
Morningglory plant response rating (morningglory; [11]): 10
Plant response rating, Morningglory (morningglory; [12]): 50
Morningglory plant response rating (morningglory; [13]): 10
Blackgrass plant response rating (blackgrass; [14]): 20
Blackgrass plant response rating (blackgrass; [15]): 50
Barnyardgrass plant response rating (barnyardgrass [4]; [16]): 15
Barnyardgrass plant response rating (barnyardgrass [4]; [17]): 55
Barnyardgrass plant response rating (barnyardgrass [4]; [18]): 75
Plant response rating, Barnyardgrass (barnyardgrass [4]; [19]): 75
Ducksalad plant response rating (ducksalad [5]; 62 g ai/ha, scale 0 to 100): 40
Ducksalad plant response rating (ducksalad [5]; [17]): 80
Ducksalad plant response rating (ducksalad [5]; [18]): 85
Plant response rating, Ducksalad (ducksalad [5]; [19]): 90
Rice plant response rating (rice [6]): 70
Barnyardgrass plant response rating (barnyardgrass [7]): 70
Wheat plant response rating (wheat; [11]): 0
Wheat plant response rating (wheat; [13]): 20
Rice plant response rating (rice [8]; 62 g ai/ha, scale 0 to 100): 20
Rice plant response rating (rice [8]; [17]): 45
Rice plant response rating (rice [8]; [18]): 65
Plant response rating, Rice (rice [8]; [19]): 80
Plant response rating (0 to 100 scale), Velvetleaf (velvetleaf; [20]): 0
Velvetleaf plant response rating (velvetleaf; [11]): 20
Velvetleaf plant response rating (velvetleaf; [13]): 20
Plant response rating (0 to 100 scale), Lambsquarters (lambsquarters; [10]): 0
Lambsquarters plant response rating (lambsquarters; [11]): 40
Plant response rating, Lambsquarters (lambsquarters; [12]): 100
Lambsquarters plant response rating (lambsquarters; [13]): 50
Plant response rating (0 to 100 scale), Foxtail, Giant (giant foxtail; [10]): 60
Foxtail, Giant plant response rating (giant foxtail; [14]): 20
Plant response rating, Foxtail, Giant (giant foxtail; [12]): 100
Foxtail, Giant plant response rating (giant foxtail; [15]): 20
Sedge, Umbrella plant response rating ([9]; 62 g ai/ha, scale 0 to 100): 80
Sedge, Umbrella plant response rating [9, 17]: 90
Sedge, Umbrella plant response rating [9, 18]: 90
Plant response rating, Sedge, Umbrella ([9]; 500 g ai/ha, visual rating after 12 to 14 days, scale 0 to 100 (0 no effect, 100 complete control)): 95

CCc1nn(C(C)(C)CC)nc1C(=O)Nc1cccc(C(=O)N2CC=CC2)c1 [Compound 369]
Plant response rating (0 to 100 scale), Surinam Grass (Surinam grass; [10]): 0
Surinam Grass plant response rating (Surinam grass; [11]): 10
Surinam Grass plant response rating (Surinam grass; [21]): 10
Plant response rating (0 to 100 scale), Pigweed (pigweed; [10]): 80
Pigweed plant response rating (pigweed; [11]): 30
Pigweed plant response rating (pigweed; [21]): 60
Oat, Wild plant response rating (wild oat; [11]): 20
Oat, Wild plant response rating (wild oat; [21]): 30
Plant response rating (0 to 100 scale), Crabgrass, Large (large crabgrass; [10]): 20
Crabgrass, Large plant response rating (large crabgrass; [14]): 10
Crabgrass, Large plant response rating (large crabgrass; [15]): 20
Sedge, Umbrella plant response rating [1]: 80
Plant response rating (0 to 100 scale), Cocklebur (cocklebur; [10]): 0
Cocklebur plant response rating (cocklebur; [14]): 20
Cocklebur plant response rating (cocklebur; [15]): 70
Ducksalad plant response rating (ducksalad [2]): 90
Plant response rating (0 to 100 scale), Barnyardgrass (barnyardgrass [3]; [10]): 30
Barnyardgrass plant response rating (barnyardgrass [3]; [14]): 10
Barnyardgrass plant response rating (barnyardgrass [3]; [15]): 20
Plant response rating (0 to 100 scale), Corn (corn; [10]): 20
Corn plant response rating (corn; [14]): 10
Corn plant response rating (corn; [15]): 10
Plant response rating (0 to 100 scale), Morningglory (morningglory; [10]): 0
Morningglory plant response rating (morningglory; [11]): 0
Morningglory plant response rating (morningglory; [21]): 20
Blackgrass plant response rating (blackgrass; [14]): 0
Blackgrass plant response rating (blackgrass; [15]): 30
Barnyardgrass plant response rating (barnyardgrass [4]; [16]): 10
Barnyardgrass plant response rating (barnyardgrass [4]; [17]): 45
Barnyardgrass plant response rating (barnyardgrass [4]; [18]): 50
Plant response rating, Barnyardgrass (barnyardgrass [4]; [19]): 65
Ducksalad plant response rating (ducksalad [5]; 62 g ai/ha, scale 0 to 100): 80
Ducksalad plant response rating (ducksalad [5]; [17]): 80
Ducksalad plant response rating (ducksalad [5]; [18]): 80
Plant response rating, Ducksalad (ducksalad [5]; [19]): 80
Rice plant response rating (rice [6]): 60
Barnyardgrass plant response rating (barnyardgrass [7]): 50
Wheat plant response rating (wheat; [11]): 0
Wheat plant response rating (wheat; 500 g ai/ha, scale 0 to 100, 0 no effect, 100 complete control, preemergence): 0
Wheat plant response rating (wheat; [21]): 0
Rice plant response rating (rice [8]; 62 g ai/ha, scale 0 to 100): 55
Rice plant response rating (rice [8]; [17]): 60
Rice plant response rating (rice [8]; [18]): 60
Plant response rating, Rice (rice [8]; [19]): 65
Plant response rating (0 to 100 scale), Velvetleaf (velvetleaf; [20]): 0
Velvetleaf plant response rating (velvetleaf; [11]): 10
Velvetleaf plant response rating (velvetleaf; [21]): 60
Plant response rating (0 to 100 scale), Lambsquarters (lambsquarters; [10]): 100
Lambsquarters plant response rating (lambsquarters; [11]): 20
Lambsquarters plant response rating (lambsquarters; [21]): 70
Plant response rating (0 to 100 scale), Foxtail, Giant (giant foxtail; [10]): 20
Foxtail, Giant plant response rating (giant foxtail; [14]): 20
Foxtail, Giant plant response rating (giant foxtail; [15]): 30
Sedge, Umbrella plant response rating ([9]; 62 g ai/ha, scale 0 to 100): 75
Sedge, Umbrella plant response rating [9, 17]: 75
Sedge, Umbrella plant response rating [9, 18]: 85
